The values that follow come from patent US8663619B2, “Murgantiol as an indoor stink bug attractant” (Sterling International Inc., priority 2011, dated 2014).

Assay [1] has as its system brown marmorated stink bug (BMSB), Halyomorpha halys (Stål). As to the kind of experiment: Indoor trapping experiment with murgantiol-baited Rescue! Stink Bug Traps in homes. It is filed as in vivo. The conditions noted are these: for behavioral attraction of indoor stink bugs to baited traps: 5 mg lure on rubber septum, traps inside homes, early May, compared to blank control; for stink bugs caught relative to the blank control traps: 5 mg lure, indoor traps, blank control caught average 1 bug/trap. On the procedure:
A trapping experiment was carried out inside three homes with decent overwintering stink bug populations in Pittsburgh, Pa., during twelve days in early May to study potential attraction of the BMSB adults to a known Harlequin bug pheromone, murgantiol. During or before the experiment, overwintering stink bugs started waking up from their hibernation stage and walking/crawling inside homes. Three treatment lures and a blank control were tested using Sterling Rescue!® Stink Bug Traps (FIG. 1) in a block design. The three treatments included (i) 5 mg of more polar murgantiol mixture (a mixture of 8 more polar stereoisomers); (ii) 5 mg of less polar murgantiol mixture (a mixture of 8 less polar stereoisomers); and (iii) 5 mg of a racemic mixture of all 16 murgantiol stereoisomers. The test samples of (i), (ii), and (iii) were synthesized and separated based on the methods described by Zahn et al., J. Chem. Ecol. 34:238 (2008). The following scheme outlines the method starting from citronellal to prepare a racemic mixture of stereomers:
Lures were prepared by loading hexane solutions of the test compounds with 1% butylated hydroxytoluene (BHT) added as stabilizer onto grey rubber septa (5 mm sleeve-type; The West Co., Lititz, Pa.) via a rotor evaporator. The blank control dispensers were made in the same fashion as the treatment lures, but without any murgantiol mixtures—that is, rubber septum with hexane only. A set of four Sterling Rescue!® Stink Bug Traps baited with three different isomer mixture test samples of murgantiol dispensers and the blank control were set up in the same room of each selected home on the floor or hung from walls near windows (where stink bug activities were seen earlier). The starting positions of the four test traps within each set (room) were assigned randomly. The distance between traps within the same set was about 8-10 feet, depending on the size of each test room. Traps were checked every day and emptied when ≧5 bugs were captured in the best trap within the set, and their positions were re-randomized for a new replicate to minimize any positional effects.
Trap catch data were converted to proportion (P) of total captured bugs within each replicate to meet the assumptions of normality and homogeneity of variances for ANOVA (analysis of variance). Means were compared by ANOVA followed by the Duncan's multiple range test at α=0.05.

The subject of assay [2] is Harlequin bug, Murgantia histrionica (Hahn). The conditions noted are these: both sexes; insect-produced and synthetic murgantiol; laboratory bioassays; cited from earlier work.

Consider `CC(CCC1OC1(C)C)C1C=CC(C)(O)CC1` (racemic) [racemic mixture of all 16 murgantiol stereoisomers], for which, in assay [1], the “behavioral attraction of indoor stink bugs to baited traps” value (“behavioral attraction” for short) is “significant attraction” and the “stink bugs caught relative to the blank control traps” value is “five times”. Regarding `CC(CCC1OC1(C)C)C1C=CC(C)(O)CC1` (single isomer, unassigned) [less polar murgantiol mixture], the “behavioral attraction” value in assay [1] is listed as “weakly attractive”. Regarding `CC(CCC1OC1(C)C)C1C=CC(C)(O)CC1` (single isomer, unassigned) [more polar murgantiol mixture], in assay [1], the “behavioral attraction” value is “strong attraction” and the “stink bugs caught relative to the blank control traps” value is reported as “six times”.

Consider `CC(CCC1OC1(C)C)C1C=CC(C)(O)CC1` (stereo not shown) [murgantiol, 4-[3-(3,3-dimethyloxiran-2-yl)-1-methylpropyl]-1-methylcyclohex-2-en-1-ol], for which the “attraction of sexually mature Harlequin bugs” value in assay [2] is given as “attracted sexually mature Harlequin bugs of both sexes”. Moreover, in assay [1] (both sexes, indoors during the overwintering and transition periods), the “attractiveness to BMSB adults indoors” value is “strongly attractive”.
